Laboratory results from publication PMC10252845, “Identification and Characterization of Novel ACE Inhibitory and Antioxidant Peptides from Sardina pilchardus Hydrolysate” (Foods, 2023).
Where a SMILES comes first, the peptide text is derived from it.

Legend:
ACE = conditions: cited from earlier work
[1] = Hydroxyl radical scavenging activity (salicylic acid); conditions: positive control 10 μg/mL
Description: The hydroxyl radical (·OH) is a free radical that comprises an oxygen atom and a hydrogen atom (·OH). The principle behind measuring hydroxyl radical scavenging activity involves the reaction between the hydroxyl radical and salicylic acid, which produces 2, 3-dihydroxybenzoic acid that can be quantified by measuring the absorbance at 510 nm.
The 1 mL of sample (1 mg/mL) was mixed with 1 mL of 4.5 mmol/L of ferrous sulfate and 1 mL of 30% H2O2 (v/v). The reaction mixture was standing for 10 min after vortexing. Then, 1 mL of 4.5 mmol/L salicylic acid was added and subsequently vortexed. After a water bath at 37 °C for 30 min, the absorbance of the mixture was measured at 510 nm (As). For the control, deionized water was added instead of salicylic acid (Ac). Vitamin C (Vc) was used as a positive control at 10 μg/mL. Hydroxyl radical scavenging activity was calculated as follows:(6) Hydroxyl Radical Scavenging Activity=(1 − Ac−As/Ac) × 100,

ACE (from rabbit lung) = biological target: T1, ACE (from rabbit lung) (Oryctolagus cuniculus, UniProt P12822); experiment: In vitro ACE inhibitory activity assay (HHL substrate, hippuric acid by HPLC); type: biochemical; conditions: synthetic peptides; read-out: IC50 for ACE inhibition (converted)
T1 construct: ACE (from rabbit lung); purchased Sigma Chemicals Co., Ltd. (St. Louis, MO, USA); host or cells: rabbit lung (tissue of origin)
T1 sequence (P12822 34-1310): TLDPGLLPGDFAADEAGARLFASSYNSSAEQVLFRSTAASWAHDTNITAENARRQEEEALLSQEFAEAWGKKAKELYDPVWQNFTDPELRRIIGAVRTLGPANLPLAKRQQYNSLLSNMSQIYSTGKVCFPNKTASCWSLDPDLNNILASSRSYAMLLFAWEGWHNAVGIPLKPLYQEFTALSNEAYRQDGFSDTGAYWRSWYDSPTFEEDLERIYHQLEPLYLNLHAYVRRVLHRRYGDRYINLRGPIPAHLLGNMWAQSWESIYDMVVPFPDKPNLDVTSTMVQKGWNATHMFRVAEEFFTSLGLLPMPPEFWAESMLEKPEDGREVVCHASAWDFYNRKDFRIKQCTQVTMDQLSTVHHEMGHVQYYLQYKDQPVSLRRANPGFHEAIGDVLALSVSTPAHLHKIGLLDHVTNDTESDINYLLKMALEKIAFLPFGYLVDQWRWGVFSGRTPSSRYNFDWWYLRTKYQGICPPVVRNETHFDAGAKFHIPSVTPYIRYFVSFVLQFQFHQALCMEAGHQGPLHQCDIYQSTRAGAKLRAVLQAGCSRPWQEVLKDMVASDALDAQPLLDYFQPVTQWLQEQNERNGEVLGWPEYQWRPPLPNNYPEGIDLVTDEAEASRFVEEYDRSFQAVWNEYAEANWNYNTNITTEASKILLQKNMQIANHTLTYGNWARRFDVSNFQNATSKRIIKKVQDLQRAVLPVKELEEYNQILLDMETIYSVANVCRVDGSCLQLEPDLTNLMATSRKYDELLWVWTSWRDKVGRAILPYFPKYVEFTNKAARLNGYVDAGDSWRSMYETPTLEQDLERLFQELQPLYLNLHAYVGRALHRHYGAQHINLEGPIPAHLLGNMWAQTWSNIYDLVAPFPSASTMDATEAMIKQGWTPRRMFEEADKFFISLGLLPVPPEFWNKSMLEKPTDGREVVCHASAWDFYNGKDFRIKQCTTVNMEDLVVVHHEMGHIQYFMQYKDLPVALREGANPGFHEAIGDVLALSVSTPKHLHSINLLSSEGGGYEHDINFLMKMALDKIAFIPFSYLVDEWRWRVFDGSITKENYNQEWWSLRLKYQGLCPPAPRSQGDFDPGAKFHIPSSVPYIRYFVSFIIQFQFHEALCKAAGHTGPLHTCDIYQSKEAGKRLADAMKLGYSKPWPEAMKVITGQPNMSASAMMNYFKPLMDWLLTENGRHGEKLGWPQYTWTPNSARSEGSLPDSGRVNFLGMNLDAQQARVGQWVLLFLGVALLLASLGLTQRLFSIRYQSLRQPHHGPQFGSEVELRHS
Description: (§1) Raw sardines (S. pilchardus) were purchased from Xiangtai Fisheries Co., Ltd. (Haikou, Hainan, China). ACE (from rabbit lung) and N-Hippuryl-His-Leu (HHL) were purchased from Sigma Chemicals Co., Ltd. (St. Louis, MO, USA). Dispase (enzyme activity 200 U/mg) was purchased from Adamas Chemicals Co., Ltd. (Shanghai, China). Alkaline protease (enzyme activity 200 U/mg) and borate buffer solution (BBS, pH8.4, containing 0.1 M H3BO3 and 0.025 M Na2B4O7) were purchased from Shanghai Yuanye Biotechnology Co., Ltd. (Shanghai, China). Trifluoroacetic acid (TFA), formic acid (FA), and acetonitrile (ACN) were obtained from Thermo Fisher Scientific Co., Ltd. (Waltham, MA, USA). The materials used for HPLC analysis were of HPLC grade, and all other reagents were of analytical grade. Artificial gastric fluid (10 g/L pepsin) and artificial intestinal fluid (10 g/L pancreatic enzyme) were purchased from Guangzhou Testing Technology Co., Ltd. (Guangzhou, China).
The ACE inhibitory activity assay was determined according to a previous report with some modifications. HHL was dissolved in BBS to make a solution with a concentration of 5 mmol/L. The ACE was dissolved in BBS at a concentration of 0.06 U/mL. The reaction system was as follows: 20 μL of 0.06 U/mL ACE solution and 40 μL of sample solution or control (BBS) was added. After 5 min in a water bath at 37 °C, 50 μL of 5 mM HHL was added and incubated at 37 °C for 1 h. At the end of the incubation, 50 μL of […] was added to terminate the reaction. 500 μL water was added to the reaction system. Hippuric acid (HA) was quantified after being released from the system using HPLC and InertSustain C18 (5 μm, 4.6 × 250 mm). HPLC analysis conditions were as follows: the UV wavelength was constant at 228 nm, the mobile phase was 0.1% TFA/25% ACN in water, the flow rate was 1 mL/min, and the injection volume was 10 μL. The ACE inhibition activity was calculated by the following equation:(1) ACE Inhibition Activity=∆A−∆B/∆A × 100, where ΔA represented the peak area of HA in the control group; ΔB represented the peak area of the sample group.
All experiments were performed in triplicate (except for the molecular docking results), and data were reported as mean ± SD (n ≥ 3). An ANOVA test using SPSS 26.0 (SPSS Corporation, Chicago, IL, USA) was used to analyze the experimental data. The IC50 value was defined as the half concentration of the peptide required to inhibit the ACE activity, and the IC50 of the ACE inhibitory peptides was determined by calculating the ACE inhibition rate at various sample concentrations using the SPSS 26.0 probit regression model.

[2] = Digestive stability in artificial intestinal fluid; type: in vitro ADME; conditions: 37 °C, 2.0 h
Description: as §1
Peptides were quantified using HPLC and InertSustain C18 (5 μm, 4.6 × 250 mm). For FIGR, HPLC analysis conditions were as follows: the UV wavelength was constant at 228 nm, the mobile phase was 0.1% TFA/15% ACN in water, the flow rate was 1 mL/min, and the injection volume was 10 μL. For rest peptides, the mobile phase was 0.1% TFA/25% ACN in water, and the other conditions were the same as FIGR.
The peptide solutions of 0.10, 0.25, 0.50, 1.00, and 1.50 mg/mL were prepared precisely, and the peak areas of the peptides at different concentration conditions were determined. The peak area was plotted as the vertical coordinate and the concentration as the horizontal coordinate to find out the regression equation.
In total, 50 μL of the 10 mg/mL peptide solution was mixed with 450 μL of artificial gastric fluid or artificial intestinal fluid in a water bath at 37 °C for 2.0 h. Then, digestion was stopped in a water bath at 90 °C for 5 min, and the method for determining the peptide content was mentioned in Section 2.10.1. Peptide preservation rate was calculated as (3) Peptide Preservation Rate=Peptide content after treatment/Peptide content before treatment × 100,

[3] = ABTS+ scavenging activity; conditions: positive control 10 μg/mL
Description: The 2,2′-Azinobis(3-ethylbenzothiazoline-6-sulfonic acid Ammonium Salt (ABTS) is commonly utilized as a stable free radical source in experiments. It is oxidized by potassium persulfate to produce an ABTS+ radical cation, which has a blue-green hue and absorbs light at 734 nm. When antioxidants are added, the free radical cations are reduced to the colorless ABTS form.
The ABTS+ was generated by mixing 7 mM ABTS and 4.09 mM potassium persulfate in the same volume, and the mixture was kept in the dark at room temperature for 12 h before use. The sample (1 mg/mL) group added sample 0.5 mL with 1 mL of ABTS+ solution. Control group was the same as the sample group, except that the sample was replaced with deionized water. Blank group was added deionized water 0.5 mL with 1 mL of ABTS+ solution. After incubation at room temperature for 6 min, the absorbance was tested at 734 nm. The positive control was 10 μg/mL glutathione (GSH). The sample’s concentration of 1 mg/mL falls within the linear range of the sample’s ABTS scavenging ability. (5) ABTS+Scavenging Activity=(1 − A1−A2/A3) × 100, where A1 is absorbance of sample group, A2 is absorbance of control group, and A3 is absorbance of blank group.

[4] = DPPH radical scavenging activity; conditions: positive control 10 μg/mL
Description: The 2,2-diphenyl-1-picrylhydrazyl (DPPH) is a stable free radical with a distinct purple color and absorbs light at 517 nm. Antioxidants added to the DPPH solution lead to a reduction in the DPPH radical to a non-radical form, resulting in a decrease in the solution’s absorbance. […] This principle of DPPH radical scavenging is commonly utilized for evaluating the antioxidant capacity of various substances, such as peptides.
Sample (1 mg/mL) group was aliquots of samples being mixed 1:1 (v/v) with 0.1 mmol/L DPPH (in ethanol absolute); control group was aliquots of samples being mixed 1:1 (v/v) with ethanol absolute; and blank group was aliquots of ethanol absolute being mixed 1:1 (v/v) with 0.1 mmol/L DPPH (in ethanol absolute). The mixture was shaken and kept for 40 min at room temperature and protected from light. The radical scavenging activity of DPPH radical was determined by measuring the absorbance at 517 nm. […] In this study, the sample concentration was 1 mg/mL, which was determined to be within the linear range of the concentration of the sample and its DPPH scavenging ability. The ability of the sample to scavenge DPPH radical was calculated according to the following equation:(4) DPPH Radical Scavenging Activity=(1 − Ai−Aj/A0) × 100, where Ai is absorbance of sample group, Aj is absorbance of control group, and A0 is absorbance of blank group.

[5] = Fe2+-chelating ability (ferrozine); conditions: positive control 10 μg/mL
Description: When Fe^2+ and ferrozine are combined, they form a stable magenta-colored complex. The presence of chelators in the solution can cause them to bind with the Fe^2+ ions, thereby preventing the formation of the Fe^2+-ferrozine complex. As a result, the amount of Fe^2+-ferrozine complex in the solution decreases, leading to a decrease in the absorbance of the solution at 562 nm.
The sample (1 mg/mL) group was a 1 mL sample mixed with 3.7 mL deionized water and 0.1 mL of FeCl2 (2 mmol/L) and 0.2 mL of ferrozine (5 mmol/L). The mixture was protected from light and kept at room temperature for 10 min prior to measuring the absorbance at 562 nm. Control group contained everything, except it used deionized water instead of sample, and blank group used deionized water instead of FeCl2 (2 mmol/L). […] The chelating ability was calculated according to the following equation:(7) Fe^2+-chelating ability=(1 − A1−A2/A3) × 100, where A1 is absorbance of sample group, A2 is absorbance of blank group, and A3 is absorbance of control group.

| IC50 (ACE (from rabbit lung)) [mM] | Retention rate after intestinal digestion [2] | Compound | other results |
| --- | --- | --- | --- |
| – | – | RWDISQPY | ACE inhibition pattern (ACE): Competitive |
| – | – | O=C1O[C@H]([C@@H](O)CO)C(O)=C1O [Vc, Vitamin C] | Hydroxyl radical scavenging ability [1]: 9.39% ± 0.54 |
| 1.5 | 73.36% ± 0.86 | CC(C)C[C@H](NC(=O)[C@H](Cc1ccccc1)NC(=O)[C@@H](N)CCCCN)C(=O)O [KFL] (H-Lys-Phe-Leu-OH; N-terminus and C-terminus assumed) | – |
| 1.31 | 10.83% ± 0.44 | CC(C)C[C@H](NC(=O)[C@H](C)NC(=O)[C@H](CCCNC(=N)N)NC(=O)[C@@H](N)Cc1ccccc1)C(=O)O [FRAL] (H-FRAL-OH; N-terminus and C-terminus assumed) | – |
| – | 86.23% ± 1.60 | CC[C@H](C)[C@H](NC(=O)[C@@H](N)Cc1ccccc1)C(=O)N[C@@H](CC(C)C)C(=O)N[C@@H](CCCNC(=N)N)C(=O)O [FILR] (H-FILR-OH; N-terminus and C-terminus assumed) | – |
| – | – | AEYLCEAC | IC50 (ACE): 4.29 mM |
| 1.22 | 50.78% ± 0.77 | CC[C@H](C)[C@H](NC(=O)[C@@H](N)Cc1ccccc1)C(=O)NCC(=O)N[C@@H](CCCNC(=N)N)C(=O)O [FIGR] (H-FIGR-OH; N-terminus and C-terminus assumed) | – |
| – | 25.62% ± 2.01 | CC(C)C[C@H](NC(=O)[C@H](CCCNC(=N)N)NC(=O)[C@H](CCC(N)=O)NC(=O)[C@@H](N)Cc1ccccc1)C(=O)O [FQRL] (H-FQRL-OH; N-terminus and C-terminus assumed) | – |
| – | – | N[C@@H](CCC(=O)N[C@@H](CS)C(=O)NCC(=O)O)C(=O)O [GSH, Glutathione] | ABTS scavenging capacity [3]: 9.01% ± 0.69; DPPH scavenging capacity [4]: 33.25% ± 1.44 |
| 2.19 | 88.92% ± 2.60 | CC(C)C[C@H](NC(=O)[C@@H](N)CCCCN)C(=O)N[C@@H](Cc1ccccc1)C(=O)O [KLF] (H-Lys-Leu-Phe-OH; N-terminus and C-terminus assumed) | – |
| – | – | O=C([O-])CN(CCN(CC(=O)O)CC(=O)O)CC(=O)[O-].[Na+].[Na+] [EDTA-2Na] | Fe2+ chelating capacity [5]: 28.81% ± 1.13 |
